“And” between values parts separate entries of the source, which are not always exact repeats. Identical values can stand only once. Like-named read-outs stand apart in the source and are kept apart here.
Test system: toxicologically relevant rat genes (rat CT array)

Brc1ccccc1 [bromobenzene]
Phase-1 RCT-192 expression (treatment/control) (24 h, dose 200, listed as BRB): 1.596 | Phase-1 RCT-213 expression (treatment/control) (24 h, dose 200, listed as BRB): 1.467 | Phase-1 RCT-214 expression (treatment/control) (24 h, dose 200, listed as BRB): 0.4191 and 0.7327 and 0.3835 | Phase-1 RCT-239 expression (treatment/control) (24 h, dose 200, listed as BRB): 0.6828 | Phase-1 RCT-258 expression (treatment/control) (24 h, dose 200, listed as BRB): 0.9631 and 1.542 | Phase-1 RCT-271 expression (treatment/control) (24 h, dose 200, listed as BRB): 0.5825 and 0.5279 | Phase-1 RCT-291 expression (treatment/control) (24 h, dose 200, listed as BRB): 1.199 and 0.6861 | Phase-1 RCT-295 expression (treatment/control) (24 h, dose 200, listed as BRB): 2.141 and 1.945 and 1.916 | Proliferating cell nuclear antigen gene expression (treatment/control) (24 h, dose 200, listed as BRB): 1.304 and 0.7642 and 1.223 | Pyruvate kinase, muscle expression (treatment/control) (24 h, dose 200, listed as BRB): 1.814 and 1.17 and 1.778 | Ref-1 expression (treatment/control) (24 h, dose 200, listed as BRB): 2.201 and 1.238 and 2.06 | Ribosomal protein L13A expression (treatment/control) (24 h, dose 200, listed as BRB): 2.014 and 1.811 and 2.099 | Ribosomal protein S8 expression (treatment/control) (24 h, dose 200, listed as BRB): 2.657 and 2.216 and 2.391 | Ribosomal protein S9 expression (treatment/control) (24 h, dose 200, listed as BRB): 1.821 and 1.272 and 1.544 | Ribosomal protein S17 expression (treatment/control) (24 h, dose 200, listed as BRB): 2.853 and 2.061 and 2.44 | Superoxide dismutase Mn expression (treatment/control) (24 h, dose 200, listed as BRB): 2.675 and 1.611 and 3.075 | T-cell cyclophilin expression (treatment/control) (24 h, dose 200, listed as BRB): 1.63 and 1.482 and 1.522 | Thymosin beta-10 expression (treatment/control) (24 h, dose 200, listed as BRB): 1.331 and 1.367 and 1.373 | Ubiquitin conjugating enzyme (RAD 6 homologue) expression (treatment/control) (24 h, dose 200, listed as BRB): 1.182 and 0.8017 and 1.22 | Uncoupling protein 2 expression (treatment/control) (24 h, dose 200, listed as BRB): 0.9873 and 1.103 | c-H-ras expression (treatment/control) (24 h, dose 200, listed as BRB): 1.3 | c-jun expression (treatment/control) (24 h, dose 200, listed as BRB): 1.819 and 1.494 and 2.242 | p53 expression (treatment/control) (24 h, dose 200, listed as BRB): 1.448 and 1.7 | {Ribosomal protein L6} expression (treatment/control) (24 h, dose 200, listed as BRB): 2.964 and 2.141 and 2.538 | 14-3-3 zeta expression (treatment/control) (24 h, dose 800, listed as BRB): 1.787 and 1.416 and 1.415 | 17-beta hydroxysteroid dehydrogenase, type 2 expression (treatment/control) (24 h, dose 800, listed as BRB): 0.2858 and 0.3548 and 0.3188 | Cathepsin L, sequence 2 expression (treatment/control) (24 h, dose 800, listed as BRB): 3.444 and 2.804 and 1.941 | Dynamin-1 (D100) expression (treatment/control) (24 h, dose 800, listed as BRB): 0.7266 and 0.7238 and 0.7854 | Gadd45 expression (treatment/control) (24 h, dose 800, listed as BRB): 3.152 and 4.261 and 2.965 | Gamma-actin, cytoplasmic expression (treatment/control) (24 h, dose 800, listed as BRB): 4.159 and 3.751 and 3.387 | Insulin-like growth factor binding protein 1 expression (treatment/control) (24 h, dose 800, listed as BRB): 2.338 and 2.353 and 1.62 | L-gulono-gamma-lactone oxidase expression (treatment/control) (24 h, dose 800, listed as BRB): 0.3036 and 0.326 and 0.3525 | Matrin F/G expression (treatment/control) (24 h, dose 800, listed as BRB): 0.4315 and 0.4295 and 0.6079 | Ornithine decarboxylase expression (treatment/control) (24 h, dose 800, listed as BRB): 2.92 and 2.902 and 2.002 | PAR interacting protein expression (treatment/control) (24 h, dose 800, listed as BRB): 3.554 and 2.34 | Phase-1 RCT-33 expression (treatment/control) (24 h, dose 800, listed as BRB): 0.6976 and 0.5633 and 0.5757 | Phase-1 RCT-36 expression (treatment/control) (24 h, dose 800, listed as BRB): 0.7359 and 0.7782 | Phase-1 RCT-38 expression (treatment/control) (24 h, dose 800, listed as BRB): 0.4296 and 0.4024 and 0.4536 | Phase-1 RCT-39 expression (treatment/control) (24 h, dose 800, listed as BRB): 1.555 and 1.399 | Phase-1 RCT-40 expression (treatment/control) (24 h, dose 800, listed as BRB): 0.4257 and 0.4952 and 0.445 | Phase-1 RCT-48 expression (treatment/control) (24 h, dose 800, listed as BRB): 0.6158 and 0.633 | Phase-1 RCT-49 expression (treatment/control) (24 h, dose 800, listed as BRB): 2.478 and 2.062 and 1.658 | Phase-1 RCT-50 expression (treatment/control) (24 h, dose 800, listed as BRB): 2.438 and 2.537 and 1.76 | Phase-1 RCT-68 expression (treatment/control) (24 h, dose 800, listed as BRB): 2.05 and 1.892 and 1.519 | Phase-1 RCT-78 expression (treatment/control) (24 h, dose 800, listed as BRB): 0.5752 and 0.6922 and 0.6621 | Phase-1 RCT-83 expression (treatment/control) (24 h, dose 800, listed as BRB): 0.6019 and 0.6858 and 0.5634 | Phase-1 RCT-89 expression (treatment/control) (24 h, dose 800, listed as BRB): 0.4544 and 0.462 and 0.4723 | Phase-1 RCT-92 expression (treatment/control) (24 h, dose 800, listed as BRB): 0.4761 and 0.6497 and 0.7002 | Phase-1 RCT-128 expression (treatment/control) (24 h, dose 800, listed as BRB): 0.5684 and 0.564 and 0.6 | Phase-1 RCT-144 expression (treatment/control) (24 h, dose 800, listed as BRB): 3.092 and 2.983 and 2.106 | Phase-1 RCT-145 expression (treatment/control) (24 h, dose 800, listed as BRB): 2.75 and 1.96 and 1.846 | Phase-1 RCT-180 expression (treatment/control) (24 h, dose 800, listed as BRB): 1.726 | Phase-1 RCT-182 expression (treatment/control) (24 h, dose 800, listed as BRB): 0.5041 and 0.56 and 0.6572 | Phase-1 RCT-207 expression (treatment/control) (24 h, dose 800, listed as BRB): 3.826 and 2.754 and 2.464 | Phase-1 RCT-213 expression (treatment/control) (24 h, dose 800, listed as BRB): 2.021 and 2.316 and 1.605 | Phase-1 RCT-256 expression (treatment/control) (24 h, dose 800, listed as BRB): 0.3752 and 0.4196 and 0.4307 | Phase-1 RCT-258 expression (treatment/control) (24 h, dose 800, listed as BRB): 1.65 | Phase-1 RCT-264 expression (treatment/control) (24 h, dose 800, listed as BRB): 0.3546 and 0.4999 and 0.3553 | Phase-1 RCT-271 expression (treatment/control) (24 h, dose 800, listed as BRB): 0.5889 and 0.6221 | Phase-1 RCT-288 expression (treatment/control) (24 h, dose 800, listed as BRB): 0.3511 and 0.3915 and 0.4038 | Phase-1 RCT-291 expression (treatment/control) (24 h, dose 800, listed as BRB): 0.6663 and 0.746 and 0.732 | Phase-1 RCT-295 expression (treatment/control) (24 h, dose 800, listed as BRB): 1.75 and 2.065 and 1.52 | Phase-1 RCT-296 expression (treatment/control) (24 h, dose 800, listed as BRB): 0.3839 and 0.27 and 0.2605 | Ribosomal protein S17 expression (treatment/control) (24 h, dose 800, listed as BRB): 2.61 and 2.612 and 1.969 | Senescence marker protein-30 expression (treatment/control) (24 h, dose 800, listed as BRB): 0.1397 and 0.1646 and 0.1474 | Zinc finger protein expression (treatment/control) (24 h, dose 800, listed as BRB): 3.935 and 2.153 and 2.076 | Paraoxonase 1 expression (treatment/control) (rat, in vivo): 0.8235 and 0.866 and 0.513
